Values after ≈ are worked out from the molar mass of the structure shown. Read-outs that look alike come from different tables or passages of the source. Each block holds one compound with its values, some of them ahead of it.
Columns and labels:
[1] = physchem; conditions: for solubility at 5 min: thermodynamic from solid
Description: All experiments were performed at ambient temperature. Each model substance was weighted into test tubes, and a precise volume of each solvent mixture was added in order to obtain saturated solutions. The test tubes were vortexed for 5 min and subsequently centrifuged (12000 rpm during 15 min at 25° C.). An aliquot of the supernatant was diluted for UV-spectrophotometric assay. Absorbance measurements were made at wavelengths adapted to each studied molecule. High Performance Liquid Chromatography (HPLC-DAD) was used for Rosmarinic Acid (RA) quantification. Determination of Radical Scavenging Capacity was conducted through DPPH assay.
Each experiment was performed in triplicate.
The solubilisation power of aqueous Pentylene Glycol solutions (from 0 to 100% of PG) for five different model substances was compared to that of 80 wt. % aqueous ethanol.
Various mixtures of bio-based PG and bio-based caprylyl glycol (CG) were explored for dissolving hesperidin. The proportion of bio-based caprylyl glycol ranged from 0 to 30%.
Regarding solubility in the ternary mixture of PG/CG/water, six different mixtures out of the monophasic region of the ternary system were prepared (see FIG. 2): Three water-rich solvent mixtures, one with a high percentage of PG, one with a high percentage of CG and one with a similar percentage of all three components. All the alkanediols used in this study were bio-based or “green”.

[2] = Ternary phase diagrams PG/water/lipophilic ingredient (monophasic region); conditions: with 85% PG, 10% water
Description: The ternary systems studied consisted of water and an organic solvent that is immiscible with water. A third liquid was added that is soluble in each of the other two components. This third liquid acts as a hydrotrope, which increases the solubility of the two immiscible liquids in each other. The white areas indicate a single-phase mixture (clear solution), while the grey areas show a biphasic mixture.
Binary mixtures of water and PG (0:100, 10:90, 20:80, 30:70, 40:60, 50:50, 60:40, 70:30, 80:20, 90:10, 100:0) were prepared in test tubes. Then the selected monoterpenes (carvacrol, carvone, geraniol, limonene, α-pinene, α-terpinene) were added dropwise (10 μL) to the binary mixtures and mixed. The addition of the monoterpenes was continued until the clear liquid changed to a turbid liquid. The test tubes were then shaken for 2 minutes and allowed to settle for 24 hours to check whether or not the biphasic liquid changed to a monophasic liquid. In the case of thymol, very small amounts of the solid sample were added to the binary mixtures of water/PG until a turbid liquid was visible to the naked eye.
Essential oils (thyme, citronella, eucalyptus and lavender) were added dropwise to the binary mixtures of water/PG until a turbid liquid was observed. After the addition of each drop (10 μL) and mixing, the samples were rested for 2 minutes to see whether there is a phase separation or not. […]

[3] = 25 °C, organic solvent or mixture
[4] = aqueous with cosolvent or surfactant or cyclodextrin

- Solubilisation power relative to water [1]: 27.2 times
- Solubilisation relative to water [1]: 26.8 times
- solubility at 5 min [1, 3]: 12800 ± 1200 µg/mL (≈ 35.5 mM)
- solubility at 5 min ([1]; 25 °C, water): 6600 ± 2400 µg/mL (≈ 18.3 mM)
- Solubility relative to solubility in 80% ethanol ([1]; 5 min): 92%
- solubility at 5 min [1, 4]: 302000 ± 9400 µg/mL (≈ 839 mM)
Structure (SMILES): O=C(/C=C/c1ccc(O)c(O)c1)O[C@H](Cc1ccc(O)c(O)c1)C(=O)O [RA, Rosmarinic Acid]

Structure (SMILES): C=C(C)[C@H]1CC=C(C)CC1 [limonene]
- Proportion in a self-stabilized ternary mixture [2]: 5%

- solubility at 5 min ([1]; 25 °C, aqueous with cosolvent or surfactant or cyclodextrin): 1900 ± 45 µg/mL (≈ 5.16 mM)
- solubility at 5 min [1, 3]: 5850 ± 310 µg/mL (≈ 15.9 mM)
- solubility at 5 min ([1]; 25 °C, water): 0.5 µg/mL (≈ 0.00136 mM)
- Solubility compared to 80% ethanol ([1]; 5 min): 1.6 fold
- solubility at 5 min [1, 4]: 3650 ± 220 µg/mL (≈ 9.91 mM)
- solubility at 5 min ([1]; organic solvent or mixture): 7900 µg/mL (≈ 21.4 mM)
Structure (SMILES): COc1cc(/C=C/C(=O)CC(=O)/C=C/c2ccc(O)c(OC)c2)ccc1O [CU, Curcumin]

Structure (SMILES): O=C(O)c1cc(O)c(O)c(O)c1 [GA, Gallic acid]
- Solubility in 70% PG relative to water (factor) [1]: ~12.4 times
- solubility at 5 min [1, 3]: 42000 ± 540 µg/mL (≈ 247 mM)
- solubility at 5 min ([1]; 25 °C, water): 10500 ± 1100 µg/mL (≈ 61.7 mM)
- Solubility in 100% PG compared to that of 70% PG ([1]; 5 min): 32.3%
- Solubilization power relative to 80% ethanol ([1]; 5 min): 58.75%
- solubility at 5 min [1, 4]: 95100 ± 8120 µg/mL (≈ 559 mM)

- Solubility [1]: completely insoluble
- Amount dissolved compared to hexane ([1]; ternary point 4 versus hexane): three times more
Structure (SMILES): CC1=C(/C=C/C(C)=C/C=C/C(C)=C/C=C/C=C(C)/C=C/C=C(C)/C=C/C2=C(C)CCCC2(C)C)C(C)(C)CCC1 [B-C, β-carotene]

Structure (SMILES): COc1ccc([C@@H]2CC(=O)c3c(O)cc(O[C@@H]4O[C@H](CO[C@@H]5O[C@@H](C)[C@H](O)[C@@H](O)[C@H]5O)[C@@H](O)[C@H](O)[C@H]4O)cc3O2)cc1O [HE, Hesperidin]
- Solubilisation power relative to 80% ethanol ([1]; 5% CG in PG versus 80% ethanol): 82.4%
- Solubility compared to PG alone ([1]; 5% CG in PG versus PG alone): 5 times
- Solubility ([1]; (PG:CG) solution, 1% CG): 0.078 ± 0.005 g/litre of solvent
- Solubility ([1]; (PG:CG) solution, 5% CG): 0.11 ± 0.006 g/litre of solvent
- Solubility ([1]; (PG:CG) solution, 10% CG): 0.071 ± 0.003 g/litre of solvent
- Solubility ([1]; (PG:CG) solution, 20% CG): 0.071 ± 0.007 g/litre of solvent
- Solubility ([1]; (PG:CG) solution, 30% CG): 0.06 ± 0.01 g/litre of solvent
- Solubility ([1]; solvent 10% PG in water, ambient temperature): 0.013 ± 0.003 g/litre of solvent
- Solubility ([1]; solvent 30% PG in water, ambient temperature): 0.177 ± 0.006 g/litre of solvent
- Solubility ([1]; solvent 50% PG in water, ambient temperature): 0.218 ± 0.024 g/litre of solvent
- Solubility ([1]; solvent 70% PG in water, ambient temperature): 0.19 ± 0.011 g/litre of solvent
- Solubility ([1]; solvent 80% EtOH, ambient temperature): 0.13 ± 0.009 g/litre of solvent
- Solubility ([1]; solvent 90% PG in water, ambient temperature): 0.118 ± 0.012 g/litre of solvent
- Solubility ([1]; solvent 100% H2O, ambient temperature): 0.00 g/litre of solvent
- Solubility ([1]; solvent 100% H2O, ambient temperature, listed as He): completely insoluble
- Solubility ([1]; solvent 100% PG, ambient temperature): 0.0216 ± 0.002 g/litre of solvent
- Solubility ([1]; solvent 100% PG, ambient temperature, listed as Hesperidin): 0.022 ± 0.002 g/litre of solvent
- Concentration of natural substance in a saturated solution ([1]; ternary mixture No 1: 64.7% PG, 17.6% CG, 17.7% H2O): 340 ± 30 µg/mL
- Concentration of natural substance in a saturated solution ([1]; ternary mixture No 2: 37.5% PG, 31.2% CG, 31.3% H2O): 440 ± 30 µg/mL
- Concentration of natural substance in a saturated solution ([1]; ternary mixture No 3: 31.2% PG, 12.5% CG, 56.3% H2O): 460 ± 10 µg/mL
- Concentration of natural substance in a saturated solution ([1]; ternary mixture No 4: 32.1% PG, 55.1% CG, 12.8% H2O): 300 ± 30 µg/mL
- Concentration of natural substance in a saturated solution ([1]; ternary mixture No 5: 25% PG, 12.5% CG, 62.5% H2O): 400 ± 30 µg/mL
- Concentration of natural substance in a saturated solution ([1]; ternary mixture No 6: 16.65% PG, 8.9% CG, 74.45% H2O): 310 ± 10 µg/mL
- Concentration relative to 80% ethanol ([1]; ternary mixture No. 3 versus 80% ethanol): 3.6 times
